Test results taken from patent publication US4450163A, “Process for the preparation of 1,3,7-trialkyl xanthines and di(3,7-dimethylxanthin-1-yl)methane as a medicament” (Societe d'Assistance Technique pour Produits Nestle S.A., priority 1979, dated 1984).

Key:
[1] = test system: ear-swelling in mice in response to antigenic challenge; assay: dermal delayed hypersensitivity test (oxazolone), inhibition of ear-swelling in mice; type: in vivo; conditions: oxazolone sensitized, 150 mg/kg b.w. i.p. at challenge, ear thickness 24 hours after challenge, compared to control animals
Description: Immunosuppression of the compound of Example 25 was compared with cyclophosphamide, a known immunosuppressant drug, as an inhibitor of ear-swelling in mice in response to antigenic challenge in a dermal delayed hypersensitivity test at 150 mg/kg body weight.
The test was performed as is described e.g. by G. L. Asherton and W. Ptak in Immunology 15, 405 (1968). Mice were immunized by applying on the abdomen skin 0.1 ml of a 3% oxazolone solution. 7 days after sensitization, they were challenged by painting the same solution on the ear skin. Part of the mice were simultaneously administered i.p. the immunosuppressant drug of Example 25 or cyclophosphamide. The remaining animals served as controls. 24 hours after challenge, the increase in ear thickness was measured. Immunosuppressant activity was expressed in % of inhibition of ear-swelling in drug-administered mice compared to control animals.

[2] = pharmacological studies (immunosuppressant activity, adverse effects); type: in vivo; conditions: in words

O=P1(N(CCCl)CCCl)NCCCO1 (stereo not shown) [Cyclophosphamide, reference compound]
% inhib. of ear-swelling [1]: 73%

Cn1cnc2c1c(=O)n(Cn1c(=O)c3c(ncn3C)n(C)c1=O)c(=O)n2C [Example 25, di(3,7-dimethylxanthin-1-yl)methane]
% inhib. of ear-swelling [1]: 55%
immunosuppressant activity [2]: has an immunosuppressant activity
toxic adverse effect [2]: no toxic adverse effect
